This note sets out measurements from patent US20260234630A1, “Methods for Treating Multiple Myeloma” (Celgene Corporation, priority 2022, published 2026).

The structures appear in SMILES notation.

Test [1] concerns Ikaros, Aiolos and ZFP91. Briefly: Western blot of cereblon substrates in MM cells. Format: cell-based. The protocol:
FIG. 1A-1F. […] (1A) Volcano plot of protein expression changes determined by mass spectrometry in H929 cells at 24 hr of treatment with CC-220 (0.1 μM) or DMSO control. X axis, Log2fold change (FC); Y axis, significance,-log 10 [p-value]. […] (1B) Volcano plot of gene expression changes determined by Affymetrix microarray in H929 cells treated with POM (1 μM) or DMSO for 24 hr. X axis, Log2fold change (FC); Y axis, significance,-log 10 [p-value], n=2 technical replicates). […] (1C) Western blot analysis protein expression of UHRF1, Ikaros, Aiolos and ZFP91 in H929 cells treated with 1 μM POM for indicated time. (1D) qRT-PCR analysis of UHRF1 gene expression levels in cells as in (1C). Error bars represent the SEM from duplicate measurements. (1E) Western blot analysis protein expression of UHRF1 and indicated proteins in MM cells treated with DMSO (−) or 1 μM POM (+) for 3 days. GAPDH serves as a loading control. (1F) Thymidine incorporation of various MM cell lines treated with indicated dose of POM for 3 days. Error bars represent the SEM from technical replicates.
FIG. 2A-2E. […] (2A) Western blot analysis protein expression of UHRF1, Ikaros, Aiolos, ZFP91 and Cereblon expression in control [shLuciferase (shLuc)] and cereblon knockdown (shCRBN) H929 cells treated with DMSO and 1 μM POM for 3 days. GAPDH, loading control. Arrow head, UHRF1. (2B) qRT-PCR analysis of UHRF1 gene expression levels in cells as in (2A). Data was normalized to ACTB. Error bars represent the SEM of technical duplicates. *** P<0.001 (Two-tailed unpaired Student's t-test). (2C) Western blot analysis protein expression of UHRF1, Ikaros and Aiolos in stably transduced H929 cells after Dox induction (0, 10, 50 or 100 ng/ml) for 3 days of non-target shRNA (shNT) or shRNAs targeting Ikaros (shIKZF1) or Aiolos (shIKZF3). (2D) qRT-PCR analysis of UHRF1 gene expression levels in cells as in (2C). Shown are cells induced with Dox (50 ng/ml) for 3 days. Data was normalized to GAPDH. Error bars represent the SEM of technical duplicates. *P<0.05, ** P<0.01, *** P<0.001, **** P<0.0001 (Two-tailed unpaired Student's t-test). […] ChIP with control rabbit IgG (IgG) serves as a negative control. Error bars represent the SEM of technical triplicates. * P<0.05, ** P<0.01, **** P<0.0001 (Two-tailed unpaired Student's t-test).
Cells were lysed with cell lysis buffer (50 mM TrisHCl pH7.4, 250 mM NaCl, 0.5% Triton X100, 10% glycerol) supplemented with protease inhibitor cocktail. Cell lysates were subjected to sonication to breakdown nuclei and reduce viscosity caused by released genomic DNA. The protein concentration was measured by a Bradford Protein Assay (Bio-Rad). […] Proteins of interested were detected incubation with primary antibodies listed below at 4° C. overnight. […]
In general terms: Immunoblotting shows a protein as a band on a membrane.

Test [2] has as its system multiple myeloma (MM) cells. Briefly: (3H)-thymidine incorporation assay of MM cell lines. The test is classed as cell-based. To be noted: POM 3 days. How it is done: FIG. 1A-1F. Down regulation of UHRF1 transcription by IMiDs correlates with drug sensitivity of multiple myeloma. (1A) Volcano plot of protein expression changes determined by mass spectrometry in H929 cells at 24 hr of treatment with CC-220 (0.1 μM) or DMSO control. X axis, Log2fold change (FC); Y axis, significance,-log 10 [p-value]. […] (1B) Volcano plot of gene expression changes determined by Affymetrix microarray in H929 cells treated with POM (1 μM) or DMSO for 24 hr. X axis, Log2fold change (FC); Y axis, significance,-log 10 [p-value], n=2 technical replicates). […] (1C) Western blot analysis protein expression of UHRF1, Ikaros, Aiolos and ZFP91 in H929 cells treated with 1 μM POM for indicated time. (1D) qRT-PCR analysis of UHRF1 gene expression levels in cells as in (1C). Error bars represent the SEM from duplicate measurements. (1E) Western blot analysis protein expression of UHRF1 and indicated proteins in MM cells treated with DMSO (−) or 1 μM POM (+) for 3 days. GAPDH serves as a loading control. (1F) Thymidine incorporation of various MM cell lines treated with indicated dose of POM for 3 days. Error bars represent the SEM from technical replicates.
(3H)-thymidine incorporation assay was performed as previously described (PMID: 23252516) with minor modifications. Briefly, 1×10^4 or 2×10^5 multiple myeloma (MM) cells were cultured in 96-well culture plates in complete media with the indicated concentration of pomalidomide (POM) or DMSO control for 3 days. 37 kBg (3H)-thymidine was added to each will at the final 6 hour of incubation.
For orientation: Incorporation of labelled thymidine or its analogues reports DNA synthesis.

In the case of `Nc1cccc2c1C(=O)N(C1CCC(=O)NC1=O)C2=O` (centres unmarked) [POM, pomalidomide], in test [1] (H929 cells, POM 1 μM, time course), the “time to degradation of Ikaros, Aiolos and ZFP91 proteins” value is at most 3 h. In addition, the “cereblon substrates (Ikaros, Aiolos, ZFP91) protein” value in test [1] (MC/CAR and RPMI 8226 cells, 1 μM POM, 3 days) was “degraded”. For the same compound, in test [1] (sensitive cell lines H929, MM1.S, DF15 and U266, 1 μM POM, 72 hours), the “Ikaros, Aiolos and ZFP91 expression level” value was “downregulated”. In addition, the “degradation of the substrates by POM under cereblon knockdown” value in test [1] (shCRBN vs shLuc H929 cells, 1 μM POM, 3 days) was “rescued”. For the same compound, the “drug sensitivity of cell lines” value is “sensitive” in test [2] (H929, MM1.S, DF15 and U266); “acquired resistance” in test [2] (H929 PR and DF15 PR (diminished cereblon expression)). Further, the results for the “drug sensitivity of cell line” value in test [2] (MC/CAR) and in test [2] (RPMI 8226) were “less sensitive” and “intrinsically resistant”, respectively.
